Data reported in patent publication US20130059324A1, “SYSTEMS AND METHODS FOR MECHANICALLY STRAINED CELL CULTURE” (THE UNIVERSITY OF KANSAS, priority 2010, published 2013).
Read-outs that look alike come from different tables or passages of the source.

What was measured:
[1] = tested on: NCI-H358 cells; assay: Drug exposure with or without simulated forces, 6-well Bioflex plates, live cell count and exponential growth model; type: cell-based, human; settings: for Growth Rates, With forces / Growth Rates, Without forces: drug at IC90 for 3 days; for Growth Rates, With forces: 20% maximum strain, 15 cycles/minute; for Growth Rates, Without forces: no forces; for Effectiveness of The Drug, Without forces (E) / Effectiveness of The Drug, With forces (Ef): percentage reduction in live cell counts; for Effectiveness of The Drug, Without forces (E): 3-day drug exposure at IC90, no forces; for Effectiveness of The Drug, With forces (Ef): 3-day drug exposure at IC90, simulated forces
Description: (§1) Treatments 1, 2 and 3 served as unstretched controls for Treatments 4, 5 and 6, respectively. For each cell line and drug, all treatments were independently repeated at least 3 times on different days, with 3 replicates per Treatments 1 and 4 (n=9) and 5 replicates per all other treatments (n=15).
The NCI-H358 (ATCC® CRL-5807) and A549 (ATCC® CCL-185) cell lines were obtained from American Type Culture Collection (ATCC, Manassas, Va.) and cultured in RPMI-1640 (NCI-H358) and HAM's F12K (A549) media containing 10% Fetal Bovine Serum (Sigma Aldrich, St. Louis, Mo.) and 1% Penicillin Streptomycin (Sigma Aldrich). Cells were passaged in 75 cm2 culture flasks at 37° C. in 5% CO2, and trypsinized using TryplE™ Express (Gibco) containing phenol red.
Cells were plated in 6-well Bioflex® plates (Flexcell® International Corporation, Hillsborough, N.C.). Each well of the plate has a flexible elastic membrane coated with a thin layer of type I collagen. Type I collagen was chosen since it more accurately represents the physiology of lung tumor cells in vivo. The Flexcell is not configured for drug studies as described herein, and had to be modified as described herein. […] Therefore, to have the same number of cells in culture at the time of drug exposure, initial seeding densities for treatments not involving simulated forces (Treatments 1-3) and those involving forces (Treatments 4-6) were adjusted for each cell line. In Treatments 1, 2 and 3, NCI-H358 and A549 cells were plated at a density of 100,000 and 20,000 cells/well in 2 ml of corresponding media, respectively. For treatments involving simulated forces (Treatments 4-6), NCI-H358 and A549 cells were plated at a density of 170,000 and 35,000 cells/well, respectively.
After allowing the cells to adhere to the membrane for 24 hours, the plates assigned for simulated forces were stretched using the FX-4000 Tension plus unit (Flexcell® International Corporation, Hillsborough, N.C.). The Flexcell unit was configured to deliver an alternating positive and negative pressure beneath the cell culture surfaces. Negative pressure pulls the culture surface down over a stationary Delrin post on the baseplate, delivering a uniform biaxial strain to the cells, and subsequent application of positive pressure releases this distension (FIGS. 9A and 9B.) In this manner, the alternating positive and negative pressure simulates forces experienced during respiration. Culture plates experiencing forces were fitted with rubber gaskets and placed on circular loading stations in the baseplate. […] Cells were preconditioned with mechanical forces for 48 hours, in an incubator at 37° C., 5% CO2 and 95% relative humidity.
(§2) After 72 hours of initial seeding, one of the five drugs was added to Treatments 3 and 6 of each cell line. […] The IC90, concentration of the drug that inhibits the growth of 90% of the cells in a static monolayer culture, was used to assure a significant inhibition in the absence of simulated forces. To insure comparability, an aliquot of 1 ml of media without the drug was added to each well in Treatments 2 and 5. After adding the drug or 1 ml of media, the plates from Treatments 5 and 6 were placed back on the baseplate and subjected to the same force profile as before for the remaining 72 hours. Plates from Treatments 2 and 3 (without forces) were placed in the same incubator for the remaining 72 hours.
(§3) Cells were trypsinized and counted at the end of day 3 in Treatments 1 and 4, and at the end of day 6 in the other treatments, using a Beckman Coulter Vi-Cell Analyzer (Beckman Coulter, Fullerton, Calif.). To examine changes in morphology, microphotographs of A549 and NCI-H358 cells were taken at the end of Treatments 1, 2, 4 and 5 using an Olympus inverted microscope and a 10× objective.
The standard exponential cell growth model (28) was used to describe the changes in live cell counts after each treatment. […]

[2] = tested on: cells in a static monolayer culture; assay: IC90 in static monolayer culture (tested concentration); type: cell-based; settings: concentration that inhibits the growth of 90% of the cells in a static monolayer culture
Protocol: Table 1 includes a list of investigated chemotherapeutic drugs, their mechanisms of action and the tested concentrations.
as §2

[3] = tested on: A549 cells; assay: Drug exposure with or without simulated forces, 6-well Bioflex plates, live cell count and exponential growth model; type: cell-based, human; settings: for Growth Rates, With forces / Growth Rates, Without forces: drug at IC90 for 3 days; for Growth Rates, With forces: 20% maximum strain, 15 cycles/minute; for Growth Rates, Without forces: no forces, negative = reduction in viable cell count; for Effectiveness of The Drug, Without forces (E) / Effectiveness of The Drug, With forces (Ef): percentage reduction in live cell counts; for Effectiveness of The Drug, Without forces (E): 3-day drug exposure at IC90, no forces; for Effectiveness of The Drug, With forces (Ef): 3-day drug exposure at IC90, simulated forces
Protocol: as §1
Cells were passaged in 75 cm2 culture flasks at 37° C. in 5% CO2, and trypsinized using TryplE™ Express (Gibco) containing phenol red.
Cells were plated in 6-well Bioflex® plates (Flexcell® International Corporation, Hillsborough, N.C.). Each well of the plate has a flexible elastic membrane coated with a thin layer of type I collagen. Type I collagen was chosen since it more accurately represents the physiology of lung tumor cells in vivo. […] In Treatments 1, 2 and 3, NCI-H358 and A549 cells were plated at a density of 100,000 and 20,000 cells/well in 2 ml of corresponding media, respectively. For treatments involving simulated forces (Treatments 4-6), NCI-H358 and A549 cells were plated at a density of 170,000 and 35,000 cells/well, respectively.
After allowing the cells to adhere to the membrane for 24 hours, the plates assigned for simulated forces were stretched using the FX-4000 Tension plus unit (Flexcell® International Corporation, Hillsborough, N.C.). The Flexcell unit was configured to deliver an alternating positive and negative pressure beneath the cell culture surfaces. Negative pressure pulls the culture surface down over a stationary Delrin post on the baseplate, delivering a uniform biaxial strain to the cells, and subsequent application of positive pressure releases this distension (FIGS. 9A and 9B.) In this manner, the alternating positive and negative pressure simulates forces experienced during respiration. Culture plates experiencing forces were fitted with rubber gaskets and placed on circular loading stations in the baseplate.
After 72 hours of initial seeding, one of the five drugs was added to Treatments 3 and 6 of each cell line. […] To insure comparability, an aliquot of 1 ml of media without the drug was added to each well in Treatments 2 and 5. After adding the drug or 1 ml of media, the plates from Treatments 5 and 6 were placed back on the baseplate and subjected to the same force profile as before for the remaining 72 hours. Plates from Treatments 2 and 3 (without forces) were placed in the same incubator for the remaining 72 hours.
as §3
The standard exponential cell growth model (28) was used to describe the changes in live cell counts after each treatment. According to this model, the cell count (e.g., N) at a particular time (e.g., t), is given by the equation:
N* is the initial cell count and λ is the cell growth rate. For each cell line, the following cell growth rates were estimated: λ=growth rate in the absence of forces and drugs, λd=growth rate in the presence of a particular drug but no forces, λXf=growth rate in the presence of forces but no drugs; and λfd=growth rate in the presence of forces and a particular drug. The growth rates λd and λfd were estimated for each tested drug. Using these growth rates and the exponential growth model, the final cell counts were mathematically modeled for each treatment under various conditions (FIG. 8). For each cell line, a linear regression model that combined the information from the 5 investigated drugs was built using Stata Statistical Software (StataCorp LP, Texas) after log-transforming the six equations listed in FIG. 8. The regression coefficients in the model were the growth rates.

[4] = tested on: A549 cells
Protocol: (§5) After allowing the cells to adhere to the flexible membrane of the 96 well plate for 24 hours, the loading pins and the system described in FIG. 7 to implement mechanical strain were used to deliver 20% maximum strain for 2 seconds to the plate assigned for mechanical forces (+M Group), followed by 2 seconds of rest (15 cycles per minute with an average strain of 10% per cycle) in keeping with a normal human respiration.
(§6) In a parallel experiments, the cells were treated with anti-tumor drug after 72 hours of initial seeding (after 48 hours of mechanical stretching). The drug was dissolved in dimethyl sulfoxide (DMSO) at stock concentration and added to the respective media. […] The IC90 concentrations of the drugs were then added to prototype plate.
(§7) The +M Group was subjected to continuous mechanical stretching while the −M Group plate was placed in the same incubator for additional 24 hours.
(§8) In order to quantify viability, 6 wells per treatment group for ViCell counter and 6 wells per condition for MTS were assigned to determine the cell viability. Using Vi-Cell counter, assigned wells were filled with extra 210 μl of media to keep the volume constant in all the wells. Media from the assigned wells were transferred into a 24-well plate, and the well location was recorded. About 50 μl of trypLE was added to each well and allowed to trypsinize for a maximum of ten minutes. A small amount of media from the 24-well plate was transferred back into corresponding wells of the prototype plate to collect detached cells.
(§9) Media and cells were transferred back into the corresponding well of the 24-well plate. All wells were brought to a final volume of 1.25 mL with PBS and mixed well. About 1 ml of this cell suspension was transferred to ViCell counter to determine the number of viable cells.

[5] = tested on: H358 cells; assay: Prototype 96-well plate, MTS assay with and without mechanical forces; type: cell-based, human; settings: drug at IC90, 24 hours, 490 nm; for MTS absorbance after 24 hours of drug exposure, With forces (Ef): mechanical forces; for MTS absorbance after 24 hours of drug exposure, Without forces (E): no forces
Protocol: (§4) The prototype plate was read using the Biotek plate reader at the wavelength of 490 nm until the media only wells absorbance reached 1.0. For the +M group plate, 30 ul of MTS was added to the assigned wells and kept in the incubator for the same amount of time that required for the −M group to develop and read at the same wavelength.

[6] = tested on: A549 cells; assay: as above; type: cell-based, human
Protocol: as §4

[7] = tested on: H358 cells; assay: Prototype 96-well plate, viable cell count (Vi-Cell) with and without mechanical forces; type: cell-based, human; settings: for Effect of mechanical forces on viable cell count / cytotoxicity: 24 hours drug exposure, prototype 96-well plate; for Viable Cell Count after 24 hours of drug exposure, With forces (Ef) / Viable Cell Count after 24 hours of drug exposure, Without forces (E): drug at IC90, 24 hours; for Viable Cell Count after 24 hours of drug exposure, With forces (Ef): mechanical forces; for Viable Cell Count after 24 hours of drug exposure, Without forces (E): no forces
Protocol: as §5
In a parallel experiments, the cells were treated with anti-tumor drug after 72 hours of initial seeding (after 48 hours of mechanical stretching). The drug was dissolved in dimethyl sulfoxide (DMSO) at stock concentration and added to the respective media. An aliquot of 50 μl of drug stock solution was added to the well containing 100 μl of media (a 1:3 dilution) in a drug plate to get the desired IC90 concentration of the drug (Table 1). The IC90 concentrations of the drugs were then added to prototype plate.
as §7
In order to quantify viability, 6 wells per treatment group for ViCell counter and 6 wells per condition for MTS were assigned to determine the cell viability. Using Vi-Cell counter, assigned wells were filled with extra 210 μl of media to keep the volume constant in all the wells.

[8] = tested on: A549 cells; assay: as above
Protocol: as §5, §6, §7, §8, §9

Structure (SMILES)	Growth Rates, With forces [1]	Growth Rates, Without forces [1]	Effectiveness of The Drug, Without forces (E) [1]	Effectiveness of The Drug, With forces (Ef) [1]	IC90 [2]	Growth Rates, With forces [3]	Growth Rates, Without forces [3]	Effectiveness of The Drug, Without forces (E) [3]	Effectiveness of The Drug, With forces (Ef) [3]	MTS absorbance after 24 hours of drug exposure, With forces (Ef) [5]	MTS absorbance after 24 hours of drug exposure, Without forces (E) [5]	Effect of mechanical forces on viable cell count / cytotoxicity [7]	Viable Cell Count after 24 hours of drug exposure, With forces (Ef) [7]	Viable Cell Count after 24 hours of drug exposure, Without forces (E) [7]	also measured
N.N.[Cl][Pt][Cl] [Cisplatin]	−0.233 per day	−0.027 per day	72.4%	62.1%	50 µM	−0.211 per day	−0.204 per day	91.6%	74.7%						Effectiveness of The Drug, Without forces (E) ([3]; listed as P00004): 91.6%; Effectiveness of The Drug, With forces (Ef) ([3]; listed as P00004): 74.7%
COc1cccc2c1C(=O)c1c(O)c3c(c(O)c1C2=O)C[C@@](O)(C(=O)CO)C[C@@H]3O[C@H]1C[C@H](N)[C@H](O)[C@H](C)O1 [Doxorubicin]	−0.357 per day	−0.031 per day	72.7%	73.9%	30 µM	−0.268 per day	−0.170 per day	90.7%	78.7%	0.488	0.629	decrease in the ability	7500.0	17750.0	Effect of mechanical forces on viable cell count / cytotoxicity [4]: Statistically significant reduction; MTS absorbance after 24 hours of drug exposure, With forces (Ef) [6]: 0.430; MTS absorbance after 24 hours of drug exposure, Without forces (E) [6]: 0.697
COc1cc2c(Nc3ccc(Br)cc3F)ncnc2cc1OCC1CCN(C)CC1 [Zactima]	−0.833 per day	−0.163 per day	81.6%	93.7%	50 µM	−0.398 per day	−0.055 per day	86.8%	85.6%	0.368	0.536	decrease in the ability	11000.0	22000.0	Effectiveness of The Drug, Without forces (E) ([1]; listed as P00006): 81.6%; Effectiveness of The Drug, With forces (Ef) ([1]; listed as P00006): 93.7%; MTS absorbance after 24 hours of drug exposure, With forces (Ef) ([6]; A549, drug at IC90, 24 hours, 490 nm, mechanical forces): 0.307; MTS absorbance after 24 hours of drug exposure, Without forces (E) ([6]; A549, drug at IC90, 24 hours, 490 nm, no forces): 0.495; Effect of mechanical forces on viable cell count / cytotoxicity ([8]; 24 hours drug exposure, prototype 96-well plate): remained unaffected; Viable Cell Count after 24 hours of drug exposure, With forces (Ef) ([8]; drug at IC90, 24 hours, mechanical forces): 15625.0; Viable Cell Count after 24 hours of drug exposure, Without forces (E) ([8]; drug at IC90, 24 hours, no forces): 23333.3
